Laboratory results published in PubChem BioAssay AID328 (DTP/NCI, 2004).
Several values for one entry are separate records, joined by “and”; a condition that tells them apart may be missing. Equal entries are not always repeated. Toxic doses and inconclusive results are not listed.

Tested on: BDF1 mice, P388 leukemia ip, median survival T/C
Experiment: NCI In Vivo Anticancer Drug Screen. Data for tumor model P388 Leukemia (intraperitoneal) in B6D2F1 (BDF1) mice
Details: endpoint: median survival time, higher = longer survival
Method in brief: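 Transplantable tumour in mice; compound vs vehicle dosing; survival scored; ratio of treated to control reported.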

[1] = dose: 100.0 mg/kg/injection, schedule: Q04DX003 (ip), vehicle: Klucel (hydroxypropylcellulose) (HPC)
[2] = dose: 200.0 mg/kg/injection, schedule: Q01DX009 (ip), vehicle: Klucel (hydroxypropylcellulose) (HPC)
[3] = dose: 200.0 mg/kg/injection, schedule: Q04DX003 (ip), vehicle: Klucel (hydroxypropylcellulose) (HPC)
[4] = dose: 400.0 mg/kg/injection, schedule: Q01DX009 (ip), vehicle: Klucel (hydroxypropylcellulose) (HPC)
[5] = dose: 400.0 mg/kg/injection, schedule: Q04DX003 (ip), vehicle: Klucel (hydroxypropylcellulose) (HPC)
[6] = dose: 100.0 mg/kg/injection, schedule: Q01DX009 (ip), vehicle: saline
[7] = dose: 100.0 mg/kg/injection, schedule: Q04DX003 (ip), vehicle: saline
[8] = dose: 200.0 mg/kg/injection, schedule: Q01DX009 (ip), vehicle: saline
[9] = dose: 200.0 mg/kg/injection, schedule: Q04DX003 (ip), vehicle: saline
[10] = dose: 400.0 mg/kg/injection, schedule: Q01DX009 (ip), vehicle: saline
[11] = dose: 400.0 mg/kg/injection, schedule: Q04DX003 (ip), vehicle: saline

CCc1ccc(/C=C/c2ccc(O)c3ncccc23)[n+](C)c1
T/C (dose: 0.74 mg/kg/injection, schedule: Q01DX009 (ip), vehicle: saline): 100 % of control
T/C (dose: 1.1 mg/kg/injection, schedule: Q01DX009 (ip), vehicle: saline): 109 % of control
T/C (dose: 1.7 mg/kg/injection, schedule: Q01DX009 (ip), vehicle: Klucel (hydroxypropylcellulose) (HPC)): 108 % of control
T/C (dose: 1.7 mg/kg/injection, schedule: Q01DX009 (ip), vehicle: saline): 150 % of control
T/C (dose: 2.6 mg/kg/injection, schedule: Q01DX009 (ip), vehicle: saline): 160 % of control
T/C (dose: 4.1 mg/kg/injection, schedule: Q01DX009 (ip), vehicle: Klucel (hydroxypropylcellulose) (HPC)): 122 % of control
T/C (dose: 8.0 mg/kg/injection, schedule: Q01DX009 (ip), vehicle: Klucel (hydroxypropylcellulose) (HPC)): 150 % of control
T/C (dose: 8.0 mg/kg/injection, schedule: Q01DX009 (ip), vehicle: saline with Tween-80): 170 % of control
T/C (dose: 8.0 mg/kg/injection, schedule: Q04DX003 (ip), vehicle: saline): 122 % of control
T/C (dose: 10.56 mg/kg/injection, schedule: Q01DX009 (ip), vehicle: saline with Tween-80): 154 % of control
T/C (dose: 16.0 mg/kg/injection, schedule: Q01DX009 (ip), vehicle: Klucel (hydroxypropylcellulose) (HPC)): 170 % of control
T/C (dose: 16.0 mg/kg/injection, schedule: Q01DX009 (ip), vehicle: saline with Tween-80): 159 % of control and 179 % of control
T/C (dose: 16.5 mg/kg/injection, schedule: Q01DX009 (ip), vehicle: Klucel (hydroxypropylcellulose) (HPC)): 160 % of control and 166 % of control
T/C (dose: 24.0 mg/kg/injection, schedule: Q01DX009 (ip), vehicle: saline with Tween-80): 158 % of control
T/C (dose: 25.0 mg/kg/injection, schedule: Q01DX009 (ip), vehicle: Klucel (hydroxypropylcellulose) (HPC)): 171 % of control and 185 % of control
T/C (dose: 32.0 mg/kg/injection, schedule: Q01DX009 (ip), vehicle: saline with Tween-80): 179 % of control

CC(C)(C)c1cc(CO)cc(C(C)(C)C)c1O
T/C (dose: 100.0 mg/kg/injection, schedule: Q01DX009 (ip), vehicle: Klucel (hydroxypropylcellulose) (HPC)): 107 % of control
T/C [1]: 113 % of control
T/C [2]: 103 % of control
T/C [3]: 118 % of control
T/C [4]: 111 % of control
T/C [5]: 100 % of control

O=C1CC/C(=N\O)N1
T/C (dose: 75.0 mg/kg/injection, schedule: Q01DX009 (ip), vehicle: saline): 93 % of control
T/C (dose: 150.0 mg/kg/injection, schedule: Q01DX009 (ip), vehicle: saline): 86 % of control

Cc1cc(C)cc(CCc2cc(C)cc(C)c2)c1
T/C [1]: 100 % of control
T/C [2]: 109 % of control
T/C [3]: 90 % of control
T/C [4]: 100 % of control
T/C [5]: 95 % of control

CN(C)c1ccc(/C=C/c2ccccn2)cc1
T/C (dose: 12.5 mg/kg/injection, schedule: Q01DX009 (ip), vehicle: saline with Tween-80): 95 % of control
T/C (dose: 25.0 mg/kg/injection, schedule: Q01DX009 (ip), vehicle: saline with Tween-80): 95 % of control

O=C1NC(O)CCN1C1OC(CO)C(O)C1O (stereo not given)
T/C (dose: 50.0 mg/kg/injection, schedule: Q01DX009 (ip), vehicle: saline): 89 % of control
T/C [6]: 100 % of control and 113 % of control
T/C [7]: 116 % of control
T/C [8]: 101 % of control and 104 % of control
T/C [9]: 108 % of control
T/C [10]: 100 % of control and 117 % of control
T/C [11]: 95 % of control

O=C(O)C1(C(=O)O)CC2CC=CCC2C1 (stereo not given)
T/C [7]: 110 % of control
T/C [9]: 120 % of control

CCCCCCCCCCCCCCCCN(C)c1ccc(C=O)cc1
T/C [6]: 104 % of control and 110 % of control
T/C [7]: 118 % of control
T/C [8]: 100 % of control and 105 % of control
T/C [9]: 109 % of control
T/C [10]: 113 % of control
T/C [11]: 109 % of control

CCOC(=O)Nc1cc(NCC(=O)c2ccc(C(F)(F)F)cc2)c([N+](=O)[O-])c(N)n1
T/C (dose: 50.0 mg/kg/injection, schedule: Q01DX001 (ip), vehicle: saline with Tween-80): 94 % of control
T/C (dose: 100.0 mg/kg/injection, schedule: Q01DX001 (ip), vehicle: saline with Tween-80): 105 % of control
T/C (dose: 200.0 mg/kg/injection, schedule: Q01DX001 (ip), vehicle: saline with Tween-80): 105 % of control

C1CN1P1(N2CC2)=NP(N2CC2)(N2CC2)=NP(N2CC2)(N2CC2)=N1
T/C (dose: 0.61 mg/kg/injection, schedule: Q01DX009 (ip), vehicle: saline): 109 % of control
T/C (dose: 0.92 mg/kg/injection, schedule: Q01DX009 (ip), vehicle: saline): 118 % of control
T/C (dose: 2.1 mg/kg/injection, schedule: Q01DX009 (ip), vehicle: saline): 154 % of control
T/C (dose: 3.3 mg/kg/injection, schedule: Q01DX009 (ip), vehicle: saline): 180 % of control and 203 % of control and 204 % of control
T/C (dose: 5.0 mg/kg/injection, schedule: Q01DX009 (ip), vehicle: saline): 190 % of control and 218 % of control
T/C (dose: 7.5 mg/kg/injection, schedule: Q01DX009 (ip), vehicle: saline): 265 % of control and 272 % of control and 153 % of control

CCCCCCCCCCCCCCCCCCNC(=O)Nc1ccc(CC)cc1
T/C (dose: 100.0 mg/kg/injection, schedule: Q04DX003 (ip), vehicle: saline with Tween-80): 90 % of control
T/C (dose: 200.0 mg/kg/injection, schedule: Q04DX003 (ip), vehicle: saline with Tween-80): 104 % of control
T/C (dose: 400.0 mg/kg/injection, schedule: Q04DX003 (ip), vehicle: saline with Tween-80): 95 % of control

CCSC(C(O)C(O)C(O)C(O)CO)n1ccc(=O)[nH]c1=O (stereo not given)
T/C (dose: 12.5 mg/kg/injection, schedule: Q01DX001 (ip), vehicle: saline): 100 % of control
T/C (dose: 25.0 mg/kg/injection, schedule: Q01DX001 (ip), vehicle: saline): 100 % of control
T/C (dose: 50.0 mg/kg/injection, schedule: Q01DX001 (ip), vehicle: saline): 100 % of control

O=C1Nc2ccccc2SC1C1SC(=S)N(Cc2ccccc2)C1=O (stereo not given)
T/C (dose: 50.0 mg/kg/injection, schedule: Q01DX009 (ip), vehicle: saline with Tween-80): 102 % of control
T/C (dose: 100.0 mg/kg/injection, schedule: Q01DX009 (ip), vehicle: saline with Tween-80): 86 % of control
T/C (dose: 200.0 mg/kg/injection, schedule: Q01DX009 (ip), vehicle: saline with Tween-80): 86 % of control

Cc1cc(C)cc(C(O)(c2cc(C)cc(C)c2)c2cc(C)cc(C)c2)c1
T/C [1]: 100 % of control
T/C [3]: 90 % of control
T/C [5]: 110 % of control

CO[C@H]1CC[C@@]2(C)C(=CC[C@H]3[C@@H]4C[C@H](O)C[C@@]4(C)CC[C@@H]32)C1
T/C (dose: 12.5 mg/kg/injection, schedule: Q01DX010 (ip), vehicle: other): 105 % of control
T/C (dose: 25.0 mg/kg/injection, schedule: Q01DX010 (ip), vehicle: other): 90 % of control and 120 % of control

CCCC(C(O)c1ccc(OC)cc1)C(O)(C(F)(F)F)C(F)(F)F (stereo not given)
T/C (dose: 100.0 mg/kg/injection, schedule: Q04DX003 (ip), vehicle: other): 90 % of control
T/C (dose: 200.0 mg/kg/injection, schedule: Q04DX003 (ip), vehicle: other): 105 % of control
T/C (dose: 400.0 mg/kg/injection, schedule: Q04DX003 (ip), vehicle: other): 105 % of control

COC(=O)C12OCC34C(CC5C(C)=C(O)C(=O)CC5(C)C3C(O)C1O)OC(=O)C(OC(=O)CC(C)C(C)C)C24 (stereo not given)
T/C (dose: 2.0 mg/kg/injection, schedule: Q01DX009 (ip), vehicle: saline + alcohol): 156 % of control
T/C (dose: 4.0 mg/kg/injection, schedule: Q01DX009 (ip), vehicle: saline + alcohol): 176 % of control
T/C (dose: 7.0 micrograms/kg/injection, schedule: Q01DX009 (ip), vehicle: saline + alcohol): 100 % of control
T/C (dose: 15.0 micrograms/kg/injection, schedule: Q01DX009 (ip), vehicle: saline + alcohol): 95 % of control and 119 % of control
T/C (dose: 27.5 micrograms/kg/injection, schedule: Q01DX009 (ip), vehicle: saline): 120 % of control
T/C (dose: 31.0 micrograms/kg/injection, schedule: Q01DX009 (ip), vehicle: saline + alcohol): 107 % of control and 113 % of control
T/C (dose: 62.0 micrograms/kg/injection, schedule: Q01DX009 (ip), vehicle: saline + alcohol): 115 % of control and 122 % of control
T/C (dose: 440.0 micrograms/kg/injection, schedule: Q01DX009 (ip), vehicle: saline): 150 % of control
T/C (dose: 500.0 micrograms/kg/injection, schedule: Q01DX009 (ip), vehicle: saline + alcohol): 123 % of control
T/C (dose: 1000.0 micrograms/kg/injection, schedule: Q01DX009 (ip), vehicle: saline + alcohol): 163 % of control
T/C (dose: 2000.0 micrograms/kg/injection, schedule: Q01DX009 (ip), vehicle: saline + alcohol): 168 % of control
T/C (dose: 4000.0 micrograms/kg/injection, schedule: Q01DX009 (ip), vehicle: saline + alcohol): 163 % of control

CC(=O)OCc1c(COC(C)=O)c(-c2ccc(Cl)c(Cl)c2)n2c1CCC2
T/C (dose: 12.5 mg/kg/injection, schedule: Q01DX009 (ip), vehicle: Klucel (hydroxypropylcellulose) (HPC)): 114 % of control
